Values quoted from earlier work as cited in patent US6743947B1, “Electrochemically stable onium salts and electrolytes containing such for electrochemical capacitors” (The United States of America as represented by the …, priority 1999, dated 2004).
Read-outs that look alike come from different tables or passages of the source.

Experiments:
[1] = room temperature

In the case of `CC[N+](CC)(CC)CC.F[B-](F)(F)F` [Et4NBF4, tetraethylammonium tetrafluoroborate], the conductivity ([1]; in AN, 1.4 M) is given as “about 50 mS/cm”, the conductivity ([1]; in PC, 0.65 M) is given as 8.8 mS/cm and the saturated salt concentration (in acetonitrile (AN), room temperatures) is given as “about 1.68 M”. For the same molecule, the saturated concentration (in propylene carbonate (PC), room temperature) was 0.86 M.
